Reference: ChEMBL document CHEMBL2311379, “Design and synthesis of 2-(3-alkylaminophenyl)-6-(pyrrolidin-1-yl)quinolin-4-ones as potent antitumor agents” (Bioorg Med Chem Lett, 2013)
Active and inactive are the calls of the source. No cut-off for these calls is given here.

Key:
[1] = Cytotoxicity against human Hep3B cells; type: functional, cell-based, Hep 3B2
HL-60 = test: Cytotoxicity against human HL60 cells; type: functional, cell-based
[2] = Cytotoxicity against human H460 cells; type: functional, cell-based; details: NCI-H460
Detroit 551 = test: Cytotoxicity against human Detroit 551 cells; type: cell-based
[3] = Cytotoxicity against human NCI60 cells; type: functional
Mus musculus [4] = test: Toxicity in human Hep3B cells xenografted nude mouse assessed as mouse body weight changes at 10 mg/kg, ip qd administered for 5 days per week for 4 consecutive weeks; type: organism-based, Hep 3B2; parameters: dose 10 mg/kg, route intraperitoneal; details: in vivo, 120 h
Mus musculus [5] = test: Toxicity in human Hep3B cells xenografted nude mouse assessed as mouse body weight changes at 20 mg/kg, ip qd administered for 5 days per week for 4 consecutive weeks; type: organism-based, Hep 3B2; parameters: dose 20 mg/kg, route intraperitoneal; details: in vivo, 120 h
Hep 3B2 = test: Antitumor activity against human Hep3B cells xenografted in nude mouse assessed as inhibition of tumor growth at 10 mg/kg, ip qd administered for 5 days per week for 4 consecutive weeks; type: functional, organism-based; parameters: dose 10 mg/kg
[6] = Antitumor activity against human Hep3B cells xenografted in nude mouse assessed as inhibition of tumor growth at 20 mg/kg, ip qd administered for 5 days per week for 4 consecutive weeks; type: functional, Hep 3B2; details: 120 h, route intraperitoneal, read-out: TGI

With CCNc1cccc(-c2cc(=O)c3cc(N4CCCC4)ccc3[nH]2)c1 the IC50 [1] was 20 nM, the IC50 (HL-60) was 5 nM and the IC50 [2] was 20 nM. The IC50 (Detroit 551) was over 10000 nM.

For COc1cccc(-c2cc(O)c3cc(N4CCCC4)ccc3n2)c1, the GI50 [3] was 1.91 nM.

For CN(C)c1cccc(-c2cc(=O)c3cc(N4CCCC4)ccc3[nH]2)c1, the IC50 [1] was 15 nM, the IC50 (HL-60) was 5 nM and the IC50 [2] was 13 nM. The IC50 (Detroit 551) was over 1000 nM.

In the case of CNc1cccc(-c2cc(=O)c3cc(N4CCCC4)ccc3[nH]2)c1, the Activity (Mus musculus [4]) is reported as “Non-toxic”, the IC50 [1] is reported as 21 nM and the IC50 (HL-60) is reported as 6 nM. For the same molecule, the Activity (Mus musculus [5]) was “Non-toxic”, the TGI (Hep 3B2) was “Active” and the inhibition in vivo at 20 mg/kg [6] was 70%. The IC50 [2] was 35 nM and the IC50 (Detroit 551) was over 10000 nM.
